Data taken from patent publication US20220204512A1, “SUBSTITUTED FUSED BICYCLIC DERIVATIVE, PREPARATION METHOD THEREFOR, AND APPLICATION THEREOF IN MEDICINES” (Jiangsu Hengrui Medicine Co., Ltd., priority 2019, published 2022).
pIC50: −log10 of the molar value.

Legend:
ERK2 = biological target: T1, ERK2 (Homo sapiens, UniProt P28482); experiment: ERK2 enzyme activity test (ADP-Glo Kinase Assay); type: biochemical; settings: ADP-Glo chemiluminescence
T1 construct: purchased R&D 1879-KS-010
Experimental: The purpose of this experiment is to detect the inhibitory ability of the compounds of the present disclosure on the ERK2 enzyme activity, and to evaluate the in vitro activity of the compounds based on the IC50. The ADP-Glo™ Kinase Assay Kit was used in this experiment. The substrate was phosphorylated under the action of the enzyme and ADP was produced at the same time. The ADP-Glo reagent was added to remove the unreacted ATP in the reaction system, and the ADP produced by the reaction was detected with kinase detection reagent. In the presence of the compound, the inhibition rate of the compound was calculated by measuring the signal value.
Preparation of enzyme and substrate: ERK2 (1879-KS-010, R&D) and substrate (custom peptide, Gill Biochemical) were prepared to 0.75 ng/ml and 1500 μM in a buffer (40 mM Tris, 20 mM MgCl2, 0.1 mg/ml BSA, 50 μM DTT), and then the enzyme solution and the substrate solution were prepared into a mixed solution at a volume ratio of 2:1 for later use. ATP was diluted to 500 μM with buffer. The compound was dissolved in DMSO (dimethyl sulfoxide, Shanghai Titan Scientific Co., Ltd.) to prepare a stock solution with an initial concentration of 20 mM, and then Bravo was used to prepare the compound. Finally, 3 μL of a mixed solution of enzyme and substrate, and 1 μL substrate of different concentrations of the compound (the initial concentration is 50 μM, 4-fold dilution) were added to each well of the 384-well plate, and the plate was incubated at 30° C. for 10 minutes, and finally 1 μL 500 μM ATP solution was added to each well, and the plate was incubated at 30° C. for 2 hours. Then 5 μL of ADP-Glo was added, and the plate was incubated at 30° C. for 40 minutes. Then 10 μL of kinase detection buffer was added, and the plate was incubated at 30° C. for 40 minutes. The 384-well plate was taken out and placed in a microplate reader (BMG labtech, PHERAstar FS), and the chemiluminescence was measured by a microplate reader.
Microsoft Excel, Graphpad Prism 5 was used to process and analyze the data.

[1] = Pharmacokinetics assay in mice; type: in vivo; settings: female, mouse, po, C57 mice, intragastric, 2 mg/kg, plasma
Experimental: Mice were used as test animals. The drug concentration in plasma at different time points was determined by LC/MS/MS method after administration of the compounds 1-P2, 2-P2, 4-P2, 6-P2, 9-P2, 10-P2 and 11-P2. The pharmacokinetic behavior of the compounds of the present disclosure was studied and evaluated in mice.
Sixty-three C57 mice (female, equally divided into seven groups) were purchased from Shanghai Jiesijie Laboratory Animal Co., LTD. (Certificate No.: SCXK(Shanghai)2013-0006).
A certain amount of the test compound was weighed, dissolved in 5% of DMSO by volume and 5% of tween 80, followed by the additon of 90% of normal saline to prepare a 0.1 mg/mL colorless, clear and transparent solution.
After an overnight fast, C57 mice were intragastrically administered the test compound at an administration dose of 2 mg/kg and an administration volume of 0.2 ml/10 g.
The mice were intragastrically administered the test compounds. 0.1 ml of blood was taken before the administration and at 0.25, 0.5, 1.0, 2.0, 4.0, 6.0, 8.0, 11.0 and 24.0 hours after the administration. The samples were stored in heparinized tubes, and centrifuged for 10 minutes at 3500 rpm to separate the blood plasma. The plasma samples were stored at −20° C.
The content of the test compound in the plasma of mice after intragastrical administration of the test compound at different concentrations was determined: 25 μL of […] plasma at each time point after the administration was taken, followed by the addition of 50 μL of the internal standard camptothecin solution (100ng/mL) and 200 μL of acetonitrile. The resulting solution was vortex-mixed for 5 minutes, and centrifuged for 10 minutes (4000 rpm). 4 μL of the supernatant was taken from the plasma samples for LC/MS/MS analysis.

T1 sequence (P28482 2-360 limits assumed): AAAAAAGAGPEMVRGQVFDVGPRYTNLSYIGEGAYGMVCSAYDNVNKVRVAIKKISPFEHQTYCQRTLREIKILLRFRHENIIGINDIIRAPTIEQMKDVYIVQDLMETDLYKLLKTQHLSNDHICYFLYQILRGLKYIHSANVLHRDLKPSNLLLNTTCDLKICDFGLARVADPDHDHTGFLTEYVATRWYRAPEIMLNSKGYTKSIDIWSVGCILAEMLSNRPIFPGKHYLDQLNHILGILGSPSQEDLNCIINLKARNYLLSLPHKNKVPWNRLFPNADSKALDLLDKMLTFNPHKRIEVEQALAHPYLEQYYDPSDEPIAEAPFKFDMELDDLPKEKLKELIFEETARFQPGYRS

| Compound | pIC50 (ERK2) | other results |
| --- | --- | --- |
| COc1cc(F)cc([C@@H](CO)NC(=O)[C@@H](C)N2CCn3cc(-c4nc(N[C@@H](C)CO)ncc4Cl)cc3C2=O)c1 [Example 15, (R)-2-(7-(5-Chloro-2-(((S)-1-hydroxypropan-2-yl)amino)pyrimidin-4-yl)-1-oxo-3,4-dihydropyrrolo[1,2-a]pyrazin-2(1H)-yl)-N-((S)-1-(3-fluoro-5-methoxyphenyl)-2-hydroxyethyl)propanamide] | 7.54 |  |
| COc1cc(F)cc([C@@H](CO)NC(=O)[C@H](C)N2Cc3cc(-c4nc(Nc5ccnn5C)ncc4C)cn3C2=O)c1 [Example 8-P1, (S)-N-((S)-1-(3-Fluoro-5-methoxyphenyl)-2-hydroxyethyl)-2-(6-(5-methyl-2-((1-methyl-1H-pyrazol-5-yl)amino)pyrimidin-4-yl)-3-oxo-1H-pyrrolo[1,2-c]imidazol-2(3H)-yl)propanamide] | 5.67 |  |
| Cc1cccc([C@@H](CO)NC(=O)[C@@H](C)N2CCn3cc(-c4ccnc(Nc5ccnn5C)n4)cc3C2=O)c1 [Example 18-P2, (R)-N-((S)-2-Hydroxy-1-(m-tolyl)ethyl)-2-(7-(2-((1-methyl-1H-pyrazol-5-yl)amino)pyrimidin-4-yl)-1-oxo-3,4-dihydropyrrolo[1,2-a]pyrazin-2(1H)-yl)propanamide] | 8.26 |  |
| COc1cc(F)cc([C@@H](CO)NC(=O)[C@H](C)N2CCn3cc(-c4nc(N[C@@H](C)CO)ncc4Cl)nc3C2=O)c1 [Example 14-P1, (S)-2-(2-(5-Chloro-2-(((S)-1-hydroxypropan-2-yl)amino)pyrimidin-4-yl)-8-oxo-5,6-dihydroimidazo[1,2-a]pyrazin-7(8H)-yl)-N-((S)-1-(3-fluoro-5-methoxyphenyl)-2-hydroxyethyl)propanamide] | 5.82 |  |
| COc1cc(F)cc([C@@H](CO)NC(=O)[C@H](C)N2CCn3cc(-c4nc(NC5CCOCC5)ncc4Cl)cc3C2=O)c1 [Example 4-P1, (S)-2-(7-(5-Chloro-2-((tetrahydro-2H-pyran-4-yl)amino)pyrimidin-4-yl)-1-oxo-3,4-dihydropyrrolo[1,2-a]pyrazin-2(1H)-yl)-N-((S)-1-(3-fluoro-5-methoxyphenyl)-2-hydroxyethyl)propanamide] | 6.09 |  |
| COc1cc(F)cc([C@@H](CO)NC(=O)[C@@H](C)N2CCn3cc(-c4nc(N[C@@H](C)CO)ncc4Cl)nc3C2=O)c1 [Example 14-P2, (R)-2-(2-(5-Chloro-2-(((S)-1-hydroxypropan-2-yl)amino)pyrimidin-4-yl)-8-oxo-5,6-dihydroimidazo[1,2-a]pyrazin-7(8H)-yl)-N-((S)-1-(3-fluoro-5-methoxyphenyl)-2-hydroxyethyl)propanamide] | 8.31 |  |
| COc1cc(F)cc([C@@H](CO)NC(=O)[C@H](C)N2CCn3cc(-c4nc(Nc5ccnn5C)ncc4C)cc3C2=O)c1 [Example 12-P1, (S)-N-((S)-1-(3-Fluoro-5-methoxyphenyl)-2-hydroxyethyl)-2-(7-(5-methyl-2-((1-methyl-1H-pyrazol-5-yl)amino)pyrimidin-4-yl)-1-oxo-3,4-dihydropyrrolo[1,2-a]pyrazin-2(1H)-yl)propanamide] | 6.02 |  |
| Cc1cccc([C@@H](CO)NC(=O)C(C)N2CCn3cc(-c4nc(NC5CCOCC5)ncc4Cl)nc3C2=O)c1 (stereo partly drawn) [Example 5, 2-(2-(5-Chloro-2-((tetrahydro-2H-pyran-4-yl)amino)pyrimidin-4-yl)-8-oxo-5,6-dihydroimidazo[1,2-a]pyrazin-7(8H)-yl)-N-((S)-2-hydroxy-1-(m-tolyl)ethyl)propanamide] | 8.44 |  |
| COc1cc(F)cc([C@@H](CO)NC(=O)[C@@H](C)N2Cc3cc(-c4nc(Nc5ccnn5C)ncc4C)cn3C2=O)c1 [Example 8-P2, (R)-N-((S)-1-(3-Fluoro-5-methoxyphenyl)-2-hydroxyethyl)-2-(6-(5-methyl-2-((1-methyl-1H-pyrazol-5-yl)amino)pyrimidin-4-yl)-3-oxo-1H-pyrrolo[1,2-c]imidazol-2(3H)-yl)propanamide] | 7.59 |  |
| COc1cc(F)cc([C@@H](CO)NC(=O)[C@H](C)N2Cc3cc(-c4nc(NC5CCOCC5)ncc4Cl)cn3C2=O)c1 [Example 6-P1, (S)-2-(6-(5-Chloro-2-((tetrahydro-2H-pyran-4-yl)amino)pyrimidin-4-yl)-3-oxo-1H-pyrrolo[1,2-c]imidazol-2(3H)-yl)-N-((S)-1-(3-fluoro-5-methoxyphenyl)-2-hydroxyethyl)propanamide] | 5.59 |  |
| Cc1cccc([C@@H](CO)NC(=O)[C@H](C)N2CCc3cc(-c4nc(NC5CCOCC5)ncc4Cl)cn3C2=O)c1 [Example 11-P1, (S)-2-(6-(5-Chloro-2-((tetrahydro-2H-pyran-4-yl)amino)pyrimidin-4-yl)-1-oxo-3,4-dihydropyrrolo[1,2-c]pyrimidin-2(1H)-yl)-N-((S)-2-hydroxy-1-(m-tolyl)ethyl)propanamide] | 7.12 |  |
| COc1cc(F)cc([C@@H](CO)NC(=O)[C@H](C)N2CCc3cc(-c4nc(Nc5ccnn5C)ncc4C)cn3C2=O)c1 [Example 1-P1, (S)-N-((S)-1-(3-Fluoro-5-methoxyphenyl)-2-hydroxyethyl)-2-(6-(5-methyl-2-((1-methyl-1H-pyrazol-5-yl)amino)pyrimidin-4-yl)-1-oxo-3,4-dihydropyrrolo[1,2-c]pyrimidin-2(1H)-yl)propanamide] | 6.09 |  |
| COc1cc(F)cc([C@@H](CO)NC(=O)[C@@H](C)N2Cc3cc(-c4nc(NC5CCOCC5)ncc4Cl)cn3C2=O)c1 [Example 6-P2, (R)-2-(6-(5-Chloro-2-((tetrahydro-2H-pyran-4-yl)amino)pyrimidin-4-yl)-3-oxo-1H-pyrrolo[1,2-c]imidazol-2(3H)-yl)-N-((S)-1-(3-fluoro-5-methoxyphenyl)-2-hydroxyethyl)propanamide] | 8.12 | Vd/F ([1]; read-out: Apparent distribution volume Vz/F): 7.74 L/kg; AUC ([1]; read-out: Area under curve AUC): 1740 ng·h/mL; CL/F ([1]; read-out: Clearance CLz/F): 18.9 mL/min/kg; half-life ([1]; read-out: Half-life T1/2 (converted)): 4.74 h; Cmax ([1]; read-out: Plasma concentration Cmax): 1310 ng/mL; MRT ([1]; read-out: Residence time MRT): 1.39 h |
| COc1cc(F)cc([C@@H](CO)NC(=O)[C@H](C)N2CCc3cc(-c4nc(NC5CCOCC5)ncc4Cl)cn3C2=O)c1 [Example 2-P1, (S)-2-(6-(5-Chloro-2-((tetrahydro-2H-pyran-4-yl)amino)pyrimidin-4-yl)-1-oxo-3,4-dihydropyrrolo[1,2-c]pyrimidin-2(1H)-yl)-N-((S)-1-(3-fluoro-5-methoxyphenyl)-2-hydroxyethyl)propanamide] | 6.47 |  |
